Data taken from patent publication US20250042855A1, “PERIPHERALLY AND LUMINALLY-RESTRICTED INHIBITORS OF THE SEROTONIN TRANSPORTER AS TREATMENTS FOR DISORDERS OF GASTROINTESTINAL MOTILITY AND GUT-BRAIN AXIS” (The Johns Hopkins University, priority 2021, published 2025).
Counter-ions that a name gives are not always drawn.

What was measured:
[1] = target: T1, serotonin transporter SERT (Homo sapiens, UniProt P31645); assay: Uptake of serotonin (5-HT) in human HEK-293 cells, quantitation of [3H] serotonin; assay type: cell-based; conditions: HEK293, 0.25 h, 10 micromolar concentration, 15 minutes @ 25° C., read-out: Activity Range: antagonism of uptake of serotonin (5-HT)
T1 construct: host or cells: HEK-293
T1 sequence (P31645 whole entry): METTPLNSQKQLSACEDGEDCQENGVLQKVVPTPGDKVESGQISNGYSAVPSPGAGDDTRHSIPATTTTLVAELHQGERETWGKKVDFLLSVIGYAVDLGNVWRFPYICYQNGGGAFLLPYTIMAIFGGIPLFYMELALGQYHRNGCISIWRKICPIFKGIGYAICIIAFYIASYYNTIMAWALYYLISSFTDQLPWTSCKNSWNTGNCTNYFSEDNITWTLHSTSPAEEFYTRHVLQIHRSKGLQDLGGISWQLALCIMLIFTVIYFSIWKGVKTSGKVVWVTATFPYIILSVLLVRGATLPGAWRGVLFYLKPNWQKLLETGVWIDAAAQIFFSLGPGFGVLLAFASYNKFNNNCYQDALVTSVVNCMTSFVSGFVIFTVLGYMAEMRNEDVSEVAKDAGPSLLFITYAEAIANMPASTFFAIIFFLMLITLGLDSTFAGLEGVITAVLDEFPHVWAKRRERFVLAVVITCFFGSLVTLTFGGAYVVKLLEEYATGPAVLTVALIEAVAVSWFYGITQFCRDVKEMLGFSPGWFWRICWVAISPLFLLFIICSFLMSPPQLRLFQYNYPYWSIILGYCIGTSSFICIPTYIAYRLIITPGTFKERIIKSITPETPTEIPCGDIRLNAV
Protocol: Uptake of serotonin (5-Hydroxytryptamine (5-HT)) in human HEK-293 cells embryonic kidney was measured according to the literature procedure by Gu H, Wall S. C. and Rudnick G. J Biol Chem. 1994 269, 7124. Using the following conditions: • Quantitation Method: Quantitation of [^3H] Serotonin • Vehicle: 0.50% DMSO • Incubation Time/Temp: 15 minutes @ 25° C. • Incubation Buffer: 5 mM Tris —HCl, 7.5 mM HEPES, pH 7.1, 120 mM NaCl, 5.4 mM KCl, • 1.2 mM CaCl2, 1.2 mM MgSO4, 5 mM DGlucose, 1 mM Ascorbic Acid
Any compound with minimum of 20% antagonism at 10 micromolar concentration as described above, is deemed a SERT inhibitor.

[2] = tested on: gastric emptying in C57B/6 mice; assay: Gastric emptying (phenol red) in IBS and control mice after 10 days of oral treatment; assay type: in vivo; conditions: P<0.05; for gastric emptying: 10 mg/kg by gavage once a day for 10 days, versus vehicle
Text: In this experiment our aim was to study the effects of N-(2-((diaminomethylene)amino)ethyl)-4-(((3S,4R)-4-(4-fluorophenyl)piperidin-3-yl)methoxy)benzamide (example 8) in healthy mice as well as those with a model of gastrointestinal dysmotility (irritable bowel syndrome). The IBS model was induced by mild neonatal colorectal irritation in C57B/6 mice; control mice received saline. Twenty μL of 0.5% acetic acid (AA) or saline were infused into the colorectum of mice during postnatal day 9-12. Pups were weaned at 3 weeks of age and allowed to grow up normally and tested after 8-12 weeks of age.
Male IBS and control mice were treated with vehicle, Example 8 (10 mg/kg) and paroxetine (10 mg/kg) by gavage (10 ml/kg) once a day for 10 days. On the day 9, mice were fasted overnight. On the day 10, mice were treated with drugs followed by gavage with 0.3 ml of 0.05% phenol red in methylcellulose solution. Fifteen minutes later, mice were sacrificed and the stomach was removed after ligating the cardia and pylorus with hemostats. One mouse was sacrificed immediately after gavage of phenol red (0 time) used as control. The stomachs were homogenized and phenol red were extracted. After measuring the density of phenol red, the gastric empty was calculated as
The data were analyzed by Two-WAY ANOVA followed by Student-Newman-Keuls post-hoc test.

[3] = IBS mice (neonatal acetic acid colorectal irritation)

SMILES | inhibition at 10 µM [1] [%] | also measured
NCCNC(=O)c1ccc(OC[C@@H]2CNCC[C@H]2c2ccc(F)cc2)cc1 [Example 5, N-(2-aminoethyl)-4-(((3S,4R)-4-(4-fluorophenyl)piperidin-3-yl)-methoxy)benzamide hydrochloride] | > 50 | 
O=C(O)c1ccc(OC[C@@H]2CNCC[C@H]2c2ccc(F)cc2)cc1 [Example 1, 4-(((3S,4R)-4-(4-fluorophenyl)piperidin-3-yl)methoxy)benzoic acid hydrochloride] | > 50 | 
CN(C)CCN(C)C(=O)c1ccc(OC[C@@H]2CNCC[C@H]2c2ccc(F)cc2)cc1 [Example 7, N-(2-(dimethylamino)ethyl)-4-(((3S,4R)-4-(4-fluorophenyl)piperidin-3-yl)methoxy)-N-methylbenzamide hydrochloride] | > 50 | 
CN(C)CCNC(=O)c1ccc(OC[C@@H]2CNCC[C@H]2c2ccc(F)cc2)cc1 [Example 6, N-(2-(dimethylamino)ethyl)-4-(((3S,4R)-4-(4-fluorophenyl)piperidin-3-yl)methoxy)benzamide hydrochloride] | > 50 | 
C[N+]1(C)CC[C@@H](c2ccc(F)cc2)[C@H](CCc2ccc3c(c2)OCO3)C1 [Example 17, (3S,4R)-3-(2-(benzo[d][1,3]dioxol-5-yl)ethyl)-4-(4-fluorophenyl)-1,1-dimethylpiperidin-1-ium iodide] | > 50 | 
CN(C)CCCOc1ccc(OC[C@@H]2CNCC[C@H]2c2ccc(F)cc2)cc1 [Example 12, 3-(4-(((3S,4R)-4-(4-fluorophenyl)piperidin-3-yl)methoxy)phenoxy)-N,N-dimethylpropan-1-amine hydrochloride] | > 50 | 
O=C(O)COc1ccc(OC[C@@H]2CNCC[C@H]2c2ccc(F)cc2)cc1 [Example 15, 2-(4-(((3S,4R)-4-(4-fluorophenyl)piperidin-3-yl)methoxy)phenoxy)acetic acid hydrochloride] | 20 to 40 | 
CN(C)CCOc1ccc(OC[C@@H]2CNCC[C@H]2c2ccc(F)cc2)cc1 [Example 11, 2-(4-(((3S,4R)-4-(4-fluorophenyl)piperidin-3-yl)methoxy)phenoxy)-N,N-dimethylethan-1-amine hydrochloride] | 40 to 50 | 
OCCOCCOc1ccc(OC[C@@H]2CNCC[C@H]2c2ccc(F)cc2)cc1 [Example 14, 2-(2-(4-(((3S,4R)-4-(4-fluorophenyl)piperidin-3-yl)methoxy)phenoxy)ethoxy)ethan-1-ol hydrochloride] | 20 to 40 | 
O=C(O)c1ccc(OC[C@@H]2CNCC[C@H]2c2ccc(F)cc2)cc1O [Example 3, 4-(((3S,4R)-4-(4-fluorophenyl)piperidin-3-yl)methoxy)-2-hydroxybenzoic acid hydrochloride] | > 50 | 
NC(=O)NCCNC(=O)c1ccc(OC[C@@H]2CNCC[C@H]2c2ccc(F)cc2)cc1 [Example 9, 4-(((3S,4R)-4-(4-fluorophenyl)piperidin-3-yl)methoxy)-N-(2-ureidoethyl)benzamide hydrochloride] | > 50 | 
NCCOc1ccc(OC[C@@H]2CNCC[C@H]2c2ccc(F)cc2)cc1 [Example 10, 2-(4-(((3S,4R)-4-(4-fluorophenyl)piperidin-3-yl)methoxy)phenoxy)-ethan-1-amine hydrochloride] | 40 to 50 | 
OCCOc1ccc(OC[C@@H]2CNCC[C@H]2c2ccc(F)cc2)cc1 [Example 13, 2-(4-(((3S,4R)-4-(4-fluorophenyl)piperidin-3-yl)methoxy)phenoxy)ethan-1-ol hydrochloride] | > 50 | 
Fc1ccc([C@@H]2CCNC[C@H]2COc2ccc3c(c2)OCO3)cc1 [paroxetine, reference compound] |  | gastric emptying [2, 3]: not observed; gastric emptying ([2]; saline (control) mice): not observed
O=C(O)COCCOc1ccc(OC[C@@H]2CNCC[C@H]2c2ccc(F)cc2)cc1 [Example 16, 2-(2-(4-(((3S,4R)-4-(4-fluorophenyl)piperidin-3-yl)methoxy)phenoxy)-ethoxy)acetic acid hydrochloride] | 20 to 40 | 
NC(N)=NCCNC(=O)c1ccc(OC[C@@H]2CNCC[C@H]2c2ccc(F)cc2)cc1 [Example 8, N-(2-((diaminomethylene)amino)ethyl)-4-(((3S,4R)-4-(4-fluorophenyl)piperidin-3-yl)methoxy)benzamide] | > 50 | liquid gastric emptying ([2]; FIG. 1, chronic treatment, versus H2O treated group in the same model): increases; gastric emptying [2, 3]: significantly increased; gastric emptying ([2]; saline (control) mice): significantly increased
COc1ccc(OC[C@@H]2CNCC[C@H]2c2ccc(F)cc2)cc1C(=O)O [Example 4, 5-(((3S,4R)-4-(4-fluorophenyl)piperidin-3-yl)methoxy)-2-methoxybenzoic acid hydrochloride] | > 50 | 
O=C(O)c1cccc(OC[C@@H]2CNCC[C@H]2c2ccc(F)cc2)c1 [Example 2, 3-(((3S,4R)-4-(4-fluorophenyl)piperidin-3-yl)methoxy)benzoic acid hydrochloride] | 40 to 50 | 
